According to publication PMC5218480 (PLoS ONE, 2017):

System: MV-4-11 cells
Test: Gene expression microarray analysis (Affymetrix PrimeView) and GSEA
Type: cell-based, human
Set-up: RFU PODN (11730768_x_at) / Fold change /veh PODN (11730768_x_at) / RFU LINC00158 (11744669_a_at) / Fold change /veh LINC00158 (11744669_a_at) / RFU DUSP10 (11751237_a_at) / Fold change /veh DUSP10 (11751237_a_at) / RFU ID3 (11757404_x_at) / Fold change /veh ID3 (11757404_x_at) / RFU PLEKHG5 (11737974_s_at) / Fold change /veh PLEKHG5 (11737974_s_at) / RFU LRRC4B (11730491_at) / Fold change /veh LRRC4B (11730491_at) / RFU GIMAP4 (11747438_a_at) / Fold change /veh GIMAP4 (11747438_a_at) / RFU KRT8 (11758183_x_at) / Fold change /veh KRT8 (11758183_x_at) / RFU CNN1 (11734310_a_at) / Fold change /veh CNN1 (11734310_a_at) / RFU VPS37D (11726825_at) / Fold change /veh VPS37D (11726825_at) / RFU C10orf10 (11716522_x_at) / Fold change /veh C10orf10 (11716522_x_at) / RFU KIR2DL2 /// KIR2DL4 /// KIR2DL5A /// KIR2DL5B /// KIR2DS1 /// KIR2DS2 /// KIR2DS3 /// KIR2DS4 /// KIR3DL3 /// KIR3DL3 /// KIR3DS1 (11738374_at) / Fold change /veh KIR2DL2 /// KIR2DL4 /// KIR2DL5A /// KIR2DL5B /// KIR2DS1 /// KIR2DS2 /// KIR2DS3 /// KIR2DS4 /// KIR3DL3 /// KIR3DL3 /// KIR3DS1 (11738374_at) / RFU C1QL1 (11718748_at) / Fold change /veh C1QL1 (11718748_at) / RFU TMPRSS4 (11747572_a_at) / Fold change /veh TMPRSS4 (11747572_a_at) / RFU HAMP (11756126_x_at) / Fold change /veh HAMP (11756126_x_at) / RFU RNFT2 (11725882_a_at) / Fold change /veh RNFT2 (11725882_a_at) / RFU NR4A2 (11747474_a_at) / Fold change /veh NR4A2 (11747474_a_at) / RFU ABCC12 (11746883_a_at) / Fold change /veh ABCC12 (11746883_a_at) / RFU TMEM136 (11760407_x_at) / Fold change /veh TMEM136 (11760407_x_at) / RFU CLDN22 /// WWC2 (11732394_at) / Fold change /veh CLDN22 /// WWC2 (11732394_at) / RFU HLA-DPB1 (11760878_x_at) / Fold change /veh HLA-DPB1 (11760878_x_at) / RFU SPINT1 (11716480_a_at) / Fold change /veh SPINT1 (11716480_a_at) / RFU GAP43 (11754022_s_at) / Fold change /veh GAP43 (11754022_s_at) / RFU A4GNT (11735810_at) / Fold change /veh A4GNT (11735810_at) / RFU PRB3 (11715151_x_at) / Fold change /veh PRB3 (11715151_x_at) / RFU TUBB4B (11761932_at) / Fold change /veh TUBB4B (11761932_at) / RFU CAPN14 (11732068_a_at) / Fold change /veh CAPN14 (11732068_a_at) / RFU TMCC2 (11721928_a_at) / Fold change /veh TMCC2 (11721928_a_at) / RFU IRGQ (11745062_a_at) / Fold change /veh IRGQ (11745062_a_at) / RFU FAM174B (11720279_a_at) / Fold change /veh FAM174B (11720279_a_at) / RFU TMPRSS4 (11748680_a_at) / Fold change /veh TMPRSS4 (11748680_a_at) / RFU FAM212B (11763350_a_at) / Fold change /veh FAM212B (11763350_a_at) / RFU PLEKHG5 (11743358_a_at) / Fold change /veh PLEKHG5 (11743358_a_at) / RFU ZSCAN30 (11745921_a_at) / Fold change /veh ZSCAN30 (11745921_a_at) / RFU CMKLR1 (11741424_a_at) / Fold change /veh CMKLR1 (11741424_a_at) / RFU LOC101060620 /// MAPK8IP1 (11723275_at) / Fold change /veh LOC101060620 /// MAPK8IP1 (11723275_at) / RFU SPTSSB (11747773_x_at) / Fold change /veh SPTSSB (11747773_x_at) / RFU PRSS12 (11739890_at) / Fold change /veh PRSS12 (11739890_at) / RFU BIN1 (11741810_x_at) / Fold change /veh BIN1 (11741810_x_at) / RFU WNT11 (11732464_a_at) / Fold change /veh WNT11 (11732464_a_at) / RFU C10orf10 (11716521_a_at) / Fold change /veh C10orf10 (11716521_a_at) / RFU C5orf56 (11738089_at) / Fold change /veh C5orf56 (11738089_at) / RFU CYB561 (11721691_x_at) / Fold change /veh CYB561 (11721691_x_at) / RFU ANKRD19P (11752326_a_at) / Fold change /veh ANKRD19P (11752326_a_at) / RFU OR2T12 /// OR2T33 /// OR2T8 (11738714_s_at) / Fold change /veh OR2T12 /// OR2T33 /// OR2T8 (11738714_s_at) / RFU VCAN (11748164_a_at) / Fold change /veh VCAN (11748164_a_at) / RFU JSRP1 (11732532_at) / Fold change /veh JSRP1 (11732532_at) / RFU KRTAP10-11 (11738290_x_at) / Fold change /veh KRTAP10-11 (11738290_x_at) / RFU MYO3A (11730013_a_at) / Fold change /veh MYO3A (11730013_a_at) / RFU EBF3 (11725865_a_at) / Fold change /veh EBF3 (11725865_a_at) / RFU CAMK2N1 (11719241_x_at) / Fold change /veh CAMK2N1 (11719241_x_at) / RFU C5orf56 (11738088_a_at) / Fold change /veh C5orf56 (11738088_a_at) / RFU OLFML3 (11715873_a_at) / Fold change /veh OLFML3 (11715873_a_at) / RFU LOC100653217 /// NTM (11731650_a_at) / Fold change /veh LOC100653217 /// NTM (11731650_a_at) / RFU MAPK11 (11762145_a_at) / Fold change /veh MAPK11 (11762145_a_at) / RFU FIZ1 (11724087_x_at) / Fold change /veh FIZ1 (11724087_x_at) / RFU OASL (11726364_x_at) / Fold change /veh OASL (11726364_x_at) / RFU SOX15 (11748057_x_at) / Fold change /veh SOX15 (11748057_x_at) / RFU CD79A (11719716_a_at) / Fold change /veh CD79A (11719716_a_at) / RFU HIST1H1D (11736915_at) / Fold change /veh HIST1H1D (11736915_at) / RFU CASKIN2 (11723855_a_at) / Fold change /veh CASKIN2 (11723855_a_at) / RFU LOC730098 (11760151_x_at) / Fold change /veh LOC730098 (11760151_x_at) / RFU OR4N2 (11742367_at) / Fold change /veh OR4N2 (11742367_at) / RFU PRRT2 (11749266_a_at) / Fold change /veh PRRT2 (11749266_a_at) / RFU SNX32 (11753110_a_at) / Fold change /veh SNX32 (11753110_a_at) / RFU CDHR5 (11726645_a_at) / Fold change /veh CDHR5 (11726645_a_at) / RFU RCAN1 (11760418_a_at) / Fold change /veh RCAN1 (11760418_a_at) / RFU FAM167A (11723789_a_at) / Fold change /veh FAM167A (11723789_a_at) / RFU FAM26E (11764081_at) / Fold change /veh FAM26E (11764081_at) / RFU ISYNA1 (11749810_s_at) / Fold change /veh ISYNA1 (11749810_s_at) / RFU ACY1 (11761880_at) / Fold change /veh ACY1 (11761880_at) / RFU 11764098_at / Fold change /veh 11764098_at / RFU SAMD14 (11745864_x_at) / Fold change /veh SAMD14 (11745864_x_at) / RFU NPB (11741838_a_at) / Fold change /veh NPB (11741838_a_at) / RFU TMPRSS6 (11731388_a_at) / Fold change /veh TMPRSS6 (11731388_a_at) / RFU KRTAP10-2 (11738614_at) / Fold change /veh KRTAP10-2 (11738614_at) / RFU ARHGAP8 /// PRR5-ARHGAP8 (11727945_x_at) / Fold change /veh ARHGAP8 /// PRR5-ARHGAP8 (11727945_x_at) / RFU KRTAP5-7 /// NADSYN1 (11734609_at) / Fold change /veh KRTAP5-7 /// NADSYN1 (11734609_at) / RFU RASL12 (11751679_a_at) / Fold change /veh RASL12 (11751679_a_at) / RFU CDKN2B (11736163_a_at) / Fold change /veh CDKN2B (11736163_a_at) / RFU PRF1 (11729649_at) / Fold change /veh PRF1 (11729649_at) / RFU, ZNF638 /// ZNF638-IT1 / Fold change vs veh, ZNF638 /// ZNF638-IT1 / RFU, PANK3 / Fold change vs veh, PANK3 / RFU, SH3YL1 / Fold change vs veh, SH3YL1 / RFU, ZEB2 / Fold change vs veh, ZEB2 / RFU, NRIP1 / Fold change vs veh, NRIP1 / RFU, PTTG1IP / Fold change vs veh, PTTG1IP / RFU, CAPN2 / Fold change vs veh, CAPN2 / RFU, MED14 / Fold change vs veh, MED14 / RFU, SNORA58 / Fold change vs veh, SNORA58 / RFU, C1orf63 / Fold change vs veh, C1orf63 / RFU, LRRFIP1 / Fold change vs veh, LRRFIP1 / RFU, NDUFAF7 / Fold change vs veh, NDUFAF7 / RFU, SLC12A2 / Fold change vs veh, SLC12A2 / RFU, IBTK / Fold change vs veh, IBTK / RFU, ESF1 / Fold change vs veh, ESF1 / Fold change vs veh, TMEM50B / RFU, TAOK1 / Fold change vs veh, TAOK1 / RFU, ACBD3 / Fold change vs veh, ACBD3 / RFU, TMA16 / Fold change vs veh, TMA16 / RFU, RWDD3 / Fold change vs veh, RWDD3 / RFU, BCAT1 / Fold change vs veh, BCAT1 / RFU, EDEM3 / Fold change vs veh, EDEM3 / RFU, TMEM33 / Fold change vs veh, TMEM33 / RFU, WDR75 / Fold change vs veh, WDR75 / RFU, AHCTF1 / Fold change vs veh, AHCTF1 / RFU, TFRC / Fold change vs veh, TFRC / RFU, ZDHHC17 / Fold change vs veh, ZDHHC17 / RFU, NOM1 / Fold change vs veh, NOM1 / RFU, ARL8B / Fold change vs veh, ARL8B / RFU, ZBTB11 / Fold change vs veh, ZBTB11 / RFU, TAMM41 / Fold change vs veh, TAMM41 / RFU, KIAA1704 /// LOC100996395 / Fold change vs veh, KIAA1704 /// LOC100996395 / RFU, ING1 / Fold change vs veh, ING1 / RFU, TRMT61B / Fold change vs veh, TRMT61B / RFU, FUBP3 / Fold change vs veh, FUBP3 / RFU, TP53 / Fold change vs veh, TP53 / RFU, TNKS2 / Fold change vs veh, TNKS2 / RFU, ZFP14 / Fold change vs veh, ZFP14 / RFU, ACTR2 / Fold change vs veh, ACTR2 / RFU, PPP3R1 / Fold change vs veh, PPP3R1 / RFU, PIK3R1 / Fold change vs veh, PIK3R1 / RFU, HNRNPA1 / Fold change vs veh, HNRNPA1 / RFU, RNF170 / Fold change vs veh, RNF170 / RFU, ZNF28 / Fold change vs veh, ZNF28 / RFU, RNGTT / Fold change vs veh, RNGTT / RFU, OGT / Fold change vs veh, OGT / RFU, BRD1 / Fold change vs veh, BRD1 / RFU, MARS / Fold change vs veh, MARS / RFU, ZNF655 / Fold change vs veh, ZNF655 / RFU, FAHD1 / Fold change vs veh, FAHD1 / RFU, BDP1 / Fold change vs veh, BDP1 / RFU, LRRCC1 / Fold change vs veh, LRRCC1 / RFU, ARID1A / Fold change vs veh, ARID1A / RFU, ZNF146 / Fold change vs veh, ZNF146 / RFU, ZNF330 / Fold change vs veh, ZNF330 / RFU, GPN3 / Fold change vs veh, GPN3 / RFU, C9orf123 / Fold change vs veh, C9orf123 / RFU, N4BP2L2 / Fold change vs veh, N4BP2L2 / RFU, ARFIP1 / Fold change vs veh, ARFIP1 / RFU, FAM179B / Fold change vs veh, FAM179B / RFU, BCL10 / Fold change vs veh, BCL10 / RFU, UHRF1BP1L / Fold change vs veh, UHRF1BP1L / RFU, BET1 / Fold change vs veh, BET1 / RFU, CNOT2 / Fold change vs veh, CNOT2 / RFU, ZNF268 / Fold change vs veh, ZNF268 / Fold change vs veh, ZNF507 / RFU, DGCR2 / Fold change vs veh, DGCR2 / RFU, WDSUB1 / Fold change vs veh, WDSUB1 / Fold change vs veh, HSP90B1 /// MIR3652 / RFU, ADSS / Fold change vs veh, ADSS / RFU, GK / Fold change vs veh, GK / RFU, ZNF148 / Fold change vs veh, ZNF148 / RFU, TAF9 / Fold change vs veh, TAF9 / RFU, SLC1A5 / Fold change vs veh, SLC1A5 / RFU, SLMO2 / Fold change vs veh, SLMO2 / RFU, ABCC4 / Fold change vs veh, ABCC4 / RFU, LOC101060439 /// RAP1B / Fold change vs veh, LOC101060439 /// RAP1B / RFU, RFX7 / Fold change vs veh, RFX7 / RFU, GTPBP10 / Fold change vs veh, GTPBP10 / RFU, CNEP1R1 / Fold change vs veh, CNEP1R1 / RFU, BIVM-ERCC5 /// ERCC5 / Fold change vs veh, BIVM-ERCC5 /// ERCC5 / RFU, ILF3 / Fold change vs veh, ILF3 / RFU 11762660_at / Fold change /veh 11762660_at / RFU VCAN (11757783_s_at) / Fold change /veh VCAN (11757783_s_at) / RFU DDX43 (11728927_at) / Fold change /veh DDX43 (11728927_at) / RFU KRT8 (11758188_x_at) / Fold change /veh KRT8 (11758188_x_at) / RFU NKD1 (11759106_at) / Fold change /veh NKD1 (11759106_at) / RFU SRD5A1 (11742802_a_at) / Fold change /veh SRD5A1 (11742802_a_at) / RFU TPSAB1 /// TPSB2 (11721975_s_at) / Fold change /veh TPSAB1 /// TPSB2 (11721975_s_at) / RFU GSTM3 (11746129_a_at) / Fold change /veh GSTM3 (11746129_a_at) / RFU IL23R (11737362_x_at) / Fold change /veh IL23R (11737362_x_at) / RFU TMEM51 (11727254_a_at) / Fold change /veh TMEM51 (11727254_a_at) / RFU PIWIL2 (11732686_x_at) / Fold change /veh PIWIL2 (11732686_x_at) / RFU ORM1 (11744905_x_at) / Fold change /veh ORM1 (11744905_x_at) / RFU CCDC152 (11743942_at) / Fold change /veh CCDC152 (11743942_at) / RFU ECM1 (11717891_a_at) / Fold change /veh ECM1 (11717891_a_at) / RFU IL23R (11748794_a_at) / Fold change /veh IL23R (11748794_a_at) / RFU TNFAIP8L3 (11732012_x_at) / Fold change /veh TNFAIP8L3 (11732012_x_at) / RFU MBOAT4 (11741988_at) / Fold change /veh MBOAT4 (11741988_at) / RFU 11764193_at / Fold change /veh 11764193_at / RFU TMEM53 (11763286_at) / Fold change /veh TMEM53 (11763286_at) / RFU MAGEB2 (11727129_at) / Fold change /veh MAGEB2 (11727129_at) / RFU TMEM200A (11744735_a_at) / Fold change /veh TMEM200A (11744735_a_at) / RFU CCDC152 (11751479_a_at) / Fold change /veh CCDC152 (11751479_a_at) / RFU FAM211A (11726209_a_at) / Fold change /veh FAM211A (11726209_a_at) / RFU RGS16 (11746705_a_at) / Fold change /veh RGS16 (11746705_a_at) / RFU VCAN (11755009_s_at) / Fold change /veh VCAN (11755009_s_at) / RFU RHOB (11743442_s_at) / Fold change /veh RHOB (11743442_s_at) / RFU RGS16 (11720943_a_at) / Fold change /veh RGS16 (11720943_a_at) / RFU RGS16 (11720944_at) / Fold change /veh RGS16 (11720944_at) / RFU, VPS4B / Fold change vs veh, VPS4B / RFU, CREB1 / Fold change vs veh, CREB1 / RFU, DNAJC13 / Fold change vs veh, DNAJC13 / RFU, GNAQ / Fold change vs veh, GNAQ / RFU, CDK5R1 / Fold change vs veh, CDK5R1 / RFU, ZRANB3 / Fold change vs veh, ZRANB3 / RFU, CUL4A / Fold change vs veh, CUL4A / RFU, CCNY / Fold change vs veh, CCNY / RFU, UFL1 / Fold change vs veh, UFL1 / RFU, COG3 / Fold change vs veh, COG3 / RFU, DIAPH2 / Fold change vs veh, DIAPH2 / RFU, SKA2 / Fold change vs veh, SKA2 / RFU, AFF3 / Fold change vs veh, AFF3 / RFU, LMF1 / Fold change vs veh, LMF1 / RFU, IPO11 / Fold change vs veh, IPO11 / RFU, DFFB / Fold change vs veh, DFFB / RFU, FOXP1 / Fold change vs veh, FOXP1 / RFU, CARD8 / Fold change vs veh, CARD8 / RFU, STRN3 / Fold change vs veh, STRN3 / RFU, ADK / Fold change vs veh, ADK / RFU, RASSF2 / Fold change vs veh, RASSF2 / RFU, WIPF1 / Fold change vs veh, WIPF1 / RFU, LARP1B / Fold change vs veh, LARP1B / RFU, RASA1 / Fold change vs veh, RASA1 / RFU, RB1 / Fold change vs veh, RB1 / RFU, PPFIA1 / Fold change vs veh, PPFIA1 / RFU, MAT2A / Fold change vs veh, MAT2A / RFU, CCT5 / Fold change vs veh, CCT5 / RFU, WDR92 / Fold change vs veh, WDR92 / RFU, CUX1 / Fold change vs veh, CUX1 / RFU, TTC7A / Fold change vs veh, TTC7A / RFU, TMEM135 / Fold change vs veh, TMEM135 / RFU, DEPTOR / Fold change vs veh, DEPTOR / RFU, CPM / Fold change vs veh, CPM / RFU, DNAJB6 / Fold change vs veh, DNAJB6 / RFU, CACNA2D3 / Fold change vs veh, CACNA2D3 / RFU, DTX4 / Fold change vs veh, DTX4 / RFU, TFCP2 / Fold change vs veh, TFCP2 / RFU, GMCL1 /// GMCL1P1 / Fold change vs veh, GMCL1 /// GMCL1P1 / RFU, AEBP2 / Fold change vs veh, AEBP2 / RFU, SNHG1 /// SNORD22 /// SNORD25 /// SNORD26 /// SNORD27 /// SNORD28 /// SNORD29 /// SNORD31 / Fold change vs veh, SNHG1 /// SNORD22 /// SNORD25 /// SNORD26 /// SNORD27 /// SNORD28 /// SNORD29 /// SNORD31 / Fold change (Aza/veh), C12orf56 (ProbeSet 11735607_a_at) / Fold change (ACY-1035/veh), C12orf56 (ProbeSet 11735607_a_at) / Fold change (Aza/veh), FGFR1OP (ProbeSet 11751329_s_at) / Fold change (ACY-1035/veh), FGFR1OP (ProbeSet 11751329_s_at) / Fold change (Aza/veh), VPS36 (ProbeSet 11739960_a_at) / Fold change (ACY-1035/veh), VPS36 (ProbeSet 11739960_a_at) / RFU SYPL1 (11715823_x_at) / Fold change /veh SYPL1 (11715823_x_at) / RFU IGFBP7 (11715501_s_at) / Fold change /veh IGFBP7 (11715501_s_at) / RFU REEP3 (11722064_at) / Fold change /veh REEP3 (11722064_at) / RFU IGLL1 (11728026_x_at) / Fold change /veh IGLL1 (11728026_x_at): dose or concentration left out as unconfirmed
Settings: MV-4-11 cells, 48 hours

For `Nc1ccc(-c2cccs2)cc1NC(=O)c1ccc2c(c1)cc(C1CC1)n2CCN1CCOCC1` [ACY-1035], the “Fold change /veh FAM212B (11763350_a_at)” value was 1.09.
